Measured values as given in patent publication US12077503B2, “Substituted cyclic amides and their use as herbicides” (FMC CORPORATION, priority 2015, dated 2024).

Assays:
Format in all cases: in vivo
[1] = test system: giant foxtail (Setaria faberii); assay: Test A postemergence; settings: Setaria faberi, post-emergence, 240 h, Postemergence, read-out: Foxtail, Giant plant response rating (0 to 100 scale)
Outline: (§1)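 Preemergence directed soil spray on seeded pots, or postemergence application to plants 2–10 cm, one- to two-leaf. Solvent mixture non-phytotoxic, with surfactant. Scored ~10 d later, visually, 0–100 vs untreated.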

[2] = test system: pigweed (Amaranthus retroflexus); assay: Test A postemergence; settings: Amaranthus retroflexus, post-emergence, 240 h, Postemergence, read-out: Pigweed plant response rating (0 to 100 scale)
Outline: as §1

[3] = test system: Galium (catchweed bedstraw, Galium aparine); assay: Test A postemergence; settings: Galium, post-emergence, 240 h, Postemergence, read-out: Galium plant response rating (0 to 100 scale)
Outline: as §1

[4] = test system: ragweed (common ragweed, Ambrosia elatior); assay: Test A postemergence; settings: Ambrosia artemisiifolia, post-emergence, 240 h, Postemergence, read-out: Ragweed plant response rating (0 to 100 scale)
Outline: as §1

corn (Zea mays) = assay: Test A postemergence; settings: Zea mays, post-emergence, 240 h, Postemergence, read-out: Corn plant response rating (0 to 100 scale)
Outline: as §1

[5] = test system: blackgrass (Alopecurus myosuroides); assay: Test A postemergence; settings: Alopecurus myosuroides, post-emergence, 240 h, Postemergence, read-out: Blackgrass plant response rating (0 to 100 scale)
Outline: as §1

[6] = test system: ryegrass, Italian (Italian ryegrass, Lolium multiflorum); assay: Test A postemergence; settings: Lolium multiflorum, post-emergence, 240 h, Postemergence, read-out: Ryegrass, Italian plant response rating (0 to 100 scale)
Outline: as §1

[7] = test system: wheat (Triticum aestivum); assay: Test A postemergence; settings: Triticum aestivum, post-emergence, 240 h, Postemergence, read-out: Wheat plant response rating (0 to 100 scale)
Outline: as §1

[8] = test system: barnyardgrass (Echinochloa crus-galli); assay: Test A postemergence; settings: Echinochloa crus-galli, post-emergence, 240 h, Postemergence
Outline: as §1

Kochia (Kochia scoparia) [9] = assay: Test A postemergence; settings: Bassia scoparia, post-emergence, 240 h, Postemergence, read-out: Kochia plant response rating (0 to 100 scale)
Outline: as §1

[10] = test system: ducksalad (Heteranthera limosa); assay: Test B flooded paddy test; settings: Heteranthera limosa, 360 h, Flood, 250 g ai/ha; visually evaluated after 13 to 15 d; read-out: Plant response rating, Ducksalad (0 to 100 scale where 0 is no effect and 100 is complete control)
Outline: (§2)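 Greenhouse paddy pots with 2-leaf stage plants received compound by direct addition to floodwater 3 cm deep, kept at that level. Scored visually at 13–15 d versus controls (0 no effect; 100 complete control).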

[11] = test system: sedge, umbrella (small-flower umbrella sedge, Cyperus difformis); assay: Test B flooded paddy test; settings: Cyperus difformis, 360 h, Flood, 250 g ai/ha; visually evaluated after 13 to 15 d; read-out: Plant response rating, Sedge, Umbrella (0 to 100 scale where 0 is no effect and 100 is complete control)
Outline: as §2

rice (Oryra sativa) = assay: Test B flooded paddy test; settings: Oryza sativa, 360 h, Flood, 250 g ai/ha; visually evaluated after 13 to 15 d; read-out: Plant response rating, Rice (0 to 100 scale where 0 is no effect and 100 is complete control)
Outline: as §2

[12] = test system: barnyardgrass (Echinochloa crus-galli); assay: Test B flooded paddy test; settings: Echinochloa crus-galli, 360 h, Flood, 250 g ai/ha; visually evaluated after 13 to 15 d; read-out: Plant response rating, Barnyardgrass (0 to 100 scale where 0 is no effect and 100 is complete control)
Outline: as §2

[13] = test system: giant foxtail (Setaria faberii); assay: Test A preemergence; settings: Setaria faberi, pre-emergence, 240 h, Preemergence
Outline: as §1

[14] = test system: pigweed (Amaranthus retroflexus); assay: Test A preemergence; settings: Amaranthus retroflexus, pre-emergence, 240 h, Preemergence
[15] = test system: ragweed (common ragweed, Ambrosia elatior); assay: Test A preemergence; settings: Ambrosia artemisiifolia, pre-emergence, 240 h, Preemergence
Outline: as §1

[16] = test system: ryegrass, Italian (Italian ryegrass, Lolium multiflorum); assay: Test A preemergence; settings: Lolium multiflorum, pre-emergence, 240 h, Preemergence
Outline: as §1

[17] = test system: barnyardgrass (Echinochloa crus-galli); assay: Test A preemergence; settings: Echinochloa crus-galli, pre-emergence, 240 h, Preemergence
Outline: as §1

Kochia (Kochia scoparia) [18] = assay: Test A preemergence; settings: Bassia scoparia, pre-emergence, 240 h, Preemergence
Outline: as §1

[19] = 125 g ai/ha, visual rating about 10 d after treatment
[20] = 31 g ai/ha, 0 is no effect, 100 is complete control

Work on `CN1C[C@H](c2cccc(C(F)(F)F)c2)[C@@H](C(=O)Nc2ccc(F)nc2F)C1=O` [Compound 1348] yielded a pest or weed control at 125 g/ha [1, 19] of 90%, a pest or weed control at 31 g/ha [1, 20] of 90% and a pest or weed control at 125 g/ha [2, 19] of 0%. It also gave a pest or weed control at 31 g/ha [2, 20] of 0%, a pest or weed control at 125 g/ha [3, 19] of 70% and a pest or weed control at 31 g/ha [3, 20] of 50%. For the same compound, the pest or weed control at 125 g/ha [4, 19] was 20%, the pest or weed control at 31 g/ha [4, 20] was 0% and the plant injury at 125 g/ha (corn (Zea mays); [19]) was 80%. It also gave a plant injury at 31 g/ha (corn (Zea mays); [20]) of 50%, a pest or weed control at 125 g/ha [5, 19] of 50% and a pest or weed control at 31 g/ha [5, 20] of 50%. It also gave a pest or weed control at 125 g/ha [6, 19] of 30%, a pest or weed control at 31 g/ha [6, 20] of 20% and a plant injury at 125 g/ha [7, 19] of 60%. It also gave a plant injury at 31 g/ha [7, 20] of 40%, a pest or weed control at 125 g/ha ([8]; 125 g ai/ha, visual rating about 10 d after treatment, read-out: Barnyardgrass plant response rating (0 to 100 scale, 0 no effect, 100 complete control)) of 90% and a pest or weed control at 31 g/ha ([8]; 31 g ai/ha, 0 is no effect, 100 is complete control, read-out: Barnyardgrass plant response rating (0 to 100 scale)) of 90%. The pest or weed control at 125 g/ha (Kochia (Kochia scoparia) [9]; [19]) was 50%, the pest or weed control at 31 g/ha (Kochia (Kochia scoparia) [9]; [20]) was 0% and the pest or weed control at 250 g/ha [10] was 98%. The pest or weed control at 250 g/ha [11] was 0%, the pest or weed control at 250 g/ha (rice (Oryra sativa)) was 0% and the pest or weed control at 250 g/ha [12] was 90%. The pest or weed control at 31 g/ha ([13]; 31 g ai/ha, 0 to 100 scale where 0 is no effect and 100 is complete control, read-out: Foxtail, Giant plant response rating) was 100%, the pest or weed control at 125 g/ha ([13]; 125 g ai/ha, 0 to 100 scale (0 no effect, 100 complete control), read-out: Plant response rating, Foxtail, Giant) was 100% and the pest or weed control at 31 g/ha ([14]; 31 g ai/ha, 0 to 100 scale where 0 is no effect and 100 is complete control, read-out: Pigweed plant response rating) was 0%. It also gave a pest or weed control at 125 g/ha ([14]; 125 g ai/ha, 0 to 100 scale (0 no effect, 100 complete control), read-out: Plant response rating, Pigweed) of 100%, a pest or weed control at 31 g/ha ([15]; 31 g ai/ha, 0 to 100 scale where 0 is no effect and 100 is complete control, read-out: Ragweed plant response rating) of 80% and a pest or weed control at 125 g/ha ([15]; 125 g ai/ha, 0 to 100 scale (0 no effect, 100 complete control), read-out: Plant response rating, Ragweed) of 20%. The pest or weed control at 31 g/ha ([16]; 31 g ai/ha, 0 to 100 scale where 0 is no effect and 100 is complete control, read-out: Ryegrass, Italian plant response rating) was 20%, the pest or weed control at 125 g/ha ([16]; 125 g ai/ha, 0 to 100 scale (0 no effect, 100 complete control), read-out: Plant response rating, Ryegrass, Italian) was 60% and the pest or weed control at 31 g/ha ([17]; 31 g ai/ha, 0 to 100 scale where 0 is no effect and 100 is complete control, read-out: Barnyardgrass plant response rating) was 90%. For the same compound, the pest or weed control at 125 g/ha ([17]; 125 g ai/ha, 0 to 100 scale (0 no effect, 100 complete control), read-out: Plant response rating, Barnyardgrass) was 100%, the pest or weed control at 31 g/ha (Kochia (Kochia scoparia) [18]; 31 g ai/ha, 0 to 100 scale where 0 is no effect and 100 is complete control, read-out: Kochia plant response rating) was 0% and the pest or weed control at 125 g/ha (Kochia (Kochia scoparia) [18]; 125 g ai/ha, 0 to 100 scale (0 no effect, 100 complete control), read-out: Plant response rating, Kochia) was 80%.
